Test results reported in article PMC8472597, “Neurosteroids: Structure-Uptake Relationships and Computational Modeling of Organic Anion Transporting Polypeptides (OATP)1A2” (Molecules, 2021).
Several values for one entry are separate records, joined by “and”; a condition that tells them apart may be missing. Identical values can stand only once. Like-named read-outs stand apart in the source and are kept apart here.

Experiments:
MCF-7 cells [1] = test: Concentration-dependent cellular uptake of neurosteroids into MCF-7 cells, Michaelis-Menten / Eadie-Hofstee analysis; format: cell-based, human; conditions: 5–200 µM; for Transport Mechanism Type 1 Vmax / Transport Mechanism Type 2 Vmax / Km: 30 min, 37 °C, Eadie-Hofstee plot analysis
Procedure: MCF-7 human breast adenocarcinoma cells (HTB-22; RRID: CVCL_0031) were purchased from the American Type Culture Collection (ATCC, Manassas, VA, USA). The cells were cultured in standard conditions (37 °C, 5% CO2) using Dulbecco’s modified Eagle medium (DMEM) supplemented with L-glutamine (2 mM), heat-inactivated fetal bovine serum (10%), penicillin (50 U/mL), and streptomycin (50 μg/mL). Once the cells reached 80% confluence in culture bottles (75 cm^2), the cells were washed twice with DPBS solution and harvested by trypsinization. All the following experiments were carried out with passage number 9–22.
Concentrations of neurosteroids (1–11) were determined by HPLC.
5.03 software (GraphPad Software, San Diego, CA, USA).

MCF-7 cells [2] = conditions: human, 30 min, 25 µM
Procedure: For the cellular uptake experiments, MCF-7 cells were seeded at the density of 1 × 10^5 cells/well onto 24-well plates a day before the experiments. Cellular uptake of neurosteroids (1–11) dissolved in DMSO and diluted with HBSS or MES buffer containing 5% 2-hydroxypropyl-β-cyclodextrin (HP-β-CD) was studied by incubating the cells with the pre-warmed compound solutions (250 μL) at the concentrations of 1–200 μM, at pH 7.4 (HBSS buffer), or in parallel at 5.0 (MES buffer), at 37 °C for 30 min (uptake was linear with all compounds up to 30 min). Subsequently, the cells were washed three times with ice-cold buffer and lysed with 250 μL of NaOH (0.1 M) for 60 min. The lysates were diluted with acetonitrile (ACN) with a ratio of 1:3 and centrifuged at 10,000× g for 10 min. The samples were analyzed by high-performance liquid chromatography (HPLC) methods described below. The concentrations of each compound were calculated from the standard curve and normalized to protein concentration in each 24-plate that was determined as a mean of three samples by Bio-Rad Protein Assay, based on the Bradford dye-binding method, using BSA as a standard protein and measuring the absorbance (595 nm) by multiplate reader (EnVision, Perkin Elmer, Inc., Waltham, MA, USA).
Concentrations of neurosteroids (1–11) were determined by HPLC. […]

[3] = test system: efflux transporters (P-gp, BCRP, MRPs); test: Cellular uptake into MCF-7 cells in the presence of efflux inhibitors (elacridar, MK-571); conditions: 25 µM compound; for Efflux transporter substrate status: 50 µM elacridar and MK-571, pH 7.4, MCF-7 cells
Procedure: The competitive uptake of 25 µM neurosteroids (1–11) in the presence of efflux inhibitors, 50 µM elacridar (P-gp and BCRP), and 50 µM MK-571 (MRPs) at pH 7.4 was carried out as described above, and the concentrations of studied compounds were analyzed with HPLC methods (below), calculated according to the standard curve, and normalized with protein concentration measured to each 24-well plate.
Concentrations of neurosteroids (1–11) were determined by HPLC. The apparatus was comprised of an Agilent 1100 binary pump (Agilent Technologies Inc., Wilmington, DE, USA), 1100 micro vacuum degasser, HP 1050 Auto-sampler, HP 1050 variable wavelength detector, operating at 225 nm. The chromatographic separations were achieved on a Supelco Supelcosil LC-Si analytical column (4.6 mm x 250 mm, 5 ml) (Supelco Inc., Bellefonte, PA, USA) by using isocratic elution of water containing 0.1% phosphoric acid and ACN with ratio of 30:70. The retention times of the compounds were ca. 4.3–4.4 min at the flow rate of 1.0 mL/min at room temperature. […] These HPLC methods were accurate (100 ± 10% of nominal concentration), precise (RSD% <10%), and selective (no interfering peaks) over the range 0.1–2 μM.
All data analyses, including Michaelis-Menten and Eadie-Hofstee analyses, were performed using GraphPad Prism v. […] Statistical differences between groups were tested using one-way ANOVA, followed by a two-tailed Tukey’s multiple comparison test and presented as mean ± SD, with statistically significant difference denoted by * p < 0.05, ** p < 0.01, *** p < 0.001.

OATP1A2 = test system: OATP1A2; parameters: method as in PMID 31254566; Vmax: unit not given here; conditions: reference substrate; cited from earlier work
[4] = read-out: Transport Mechanism Type 1 Km
[5] = read-out: Transport Mechanism Type 2 Km

SMILES	Transport Mechanism Type 1 Vmax (MCF-7 cells [1])	Transport Mechanism Type 2 Vmax (MCF-7 cells [1])	Km (MCF-7 cells [1]; [4]) [µM]	Km (MCF-7 cells [1]; [5]) [µM]	other results
CC(C)(C)OC(=O)N[C@@H](CC(=O)O)C(=O)N[C@@H]1CC[C@]2(C)C3CC[C@]4(C)CCCC4C3CC[C@@H]2C1 (some centres unmarked) [Compound 7]	3.0 ± 0.1 pmol/mg/min	–	–	–	–
C[C@@]12CCCC1C1CC[C@@H]3C[C@H](OC(=O)[C@@H](N)CCC(=O)O)CC[C@]3(C)C1CC2 (some centres unmarked) [Compound 3]	3.0 pmol/mg/min and 3.0 ± 0.4 pmol/mg/min	8.2 pmol/mg/min and 8.2 ± 0.1 pmol/mg/min	7.7	25.2	–
CC(C)(C)OC(=O)N[C@@H](CCC(=O)O)C(=O)N[C@@H]1CC[C@]2(C)C3CC[C@]4(C)CCCC4C3CC[C@@H]2C1 (some centres unmarked) [Compound 10]	–	–	23	282	–
C[C@@]12CCCC1C1CC[C@@H]3C[C@H](NC(=O)[C@@H](N)CC(=O)O)CC[C@]3(C)C1CC2 (some centres unmarked) [Compound 8]	8.0 ± 2.1 pmol/mg/min	28.2 pmol/mg/min and 28.2 ± 0.1 pmol/mg/min	10.9	42.8	Cellular uptake at pH 5.5 compared to pH 7.4 (MCF-7 cells [2]): increased the uptake of all neurosteroids, except of compound 8
CC(=O)[C@H]1CCC2C3CC[C@@H]4C[C@H](O)CC[C@]4(C)C3CC[C@@]21C (stereo partly drawn) [Compound 1, 3α5β-Pregnanolone, reference compound]	26.3 ± 4.2 pmol/mg/min	–	55.4	–	Efflux transporter substrate status [3]: substrates for all studied efflux transporters
C[C@]12CC[C@@H]3c4ccc(OS(=O)(=O)O)cc4CC[C@H]3[C@@H]1CCC2=O [Compound E3S, Estrone-3-Sulfate]	–	–	–	–	Km (OATP1A2): 6.5 µM; Vmax (OATP1A2): 66 ± 8.5; efficacy (OATP1A2): 10.21
CC(C)(C)OC(=O)N[C@@H](CO)C(=O)N[C@@H]1CC[C@]2(C)C3CC[C@]4(C)CCCC4C3CC[C@@H]2C1 (some centres unmarked) [Compound 5]	5.3 pmol/mg/min and 5.3 ± 0.4 pmol/mg/min	34.7 ± 7.7 pmol/mg/min	76.4	~960	–
C[C@@]12CCCC1C1CC[C@@H]3C[C@H](NC(=O)CCC(=O)O)CC[C@]3(C)C1CC2 (some centres unmarked) [Compound 6]	3.9 ± 0.5 pmol/mg/min	10.2 ± 0.1 pmol/mg/min	–	–	–
C[C@@]12CCCC1C1CC[C@@H]3C[C@H](NC(=O)[C@@H](N)CCC(=O)O)CC[C@]3(C)C1CC2 (some centres unmarked) [Compound 11]	17.2 ± 2.1 pmol/mg/min	–	24.2	–	–
C[C@H]1CCC2C3CC[C@@H]4C[C@H](NC(=O)CC(=O)O)CC[C@]4(C)C3CC[C@@]21C (some centres unmarked) [Compound 4]	13.9 ± 6.7 pmol/mg/min	–	~233	–	–
C[C@@]12CCCC1C1CC[C@@H]3C[C@H](NC(=O)CCCC(=O)O)CC[C@]3(C)C1CC2 (some centres unmarked) [Compound 9]	5.5 ± 0.6 pmol/mg/min	26.5 ± 3.0 pmol/mg/min	9.2	67.8	–
CC(=O)[C@H]1CCC2C3CC[C@@H]4C[C@H](OC(=O)[C@@H](N)CCC(=O)O)CC[C@]4(C)C3CC[C@@]21C (some centres unmarked) [Compound 2]	–	–	–	–	Uptake profile over concentration (saturation of transporter) (MCF-7 cells [1]): did not reach the saturation stage; Efflux transporter substrate status [3]: efflux phenomenon can be abolished; Cellular uptake in the presence of efflux inhibitors elacridar or MK-571 ([3]; 50 µM inhibitor, pH 7.4, MCF-7 cells): not affected
